According to ChEMBL document CHEMBL5113470, “Regioselective pyrrolizidine bis-spirooxindoles as efficient anti-amyloidogenic agents” (2022):
Calls of active or inactive are those of the source. The rule behind the calls is not given here.

What was measured:
Gallus gallus [1] = organism: Gallus gallus; assay: Inhibition of Hen egg white lysozyme fibril formation assessed as decrease in conformational transition from alpha-helix to beta-sheet after 7 days by Raman spectroscopic assay; details: time 7.0 day
Gallus gallus [2] = organism: Gallus gallus; assay: Inhibition of Hen egg white lysozyme fibril formation by Circular dichroism
Gallus gallus [3] = organism: Gallus gallus; assay: Inhibition of Hen egg white lysozyme fibril formation assessed as shorter fibrils after day 7 by TEM analysis
Gallus gallus [4] = organism: Gallus gallus; assay: Inhibition of Hen egg white lysozyme fibril formation by Thioflavin T spectroscopic assay relative to control; design: concentration or dose not given beside the values; details: dose or concentration not given here
[5] = Inhibition of HEWL fibril-induced toxicity in human HEK cells assessed as cell viability by MTT assay ( Rvb = 55.2 +/- 7.2%); type: functional

SMILES	inhibition (Gallus gallus [1])	inhibition (Gallus gallus [2])	inhibition (Gallus gallus [3])	inhibition (Gallus gallus [4]) [%]	Activity [5] [%]
COc1ccc(C(=O)[C@@H]2C3CCCN3[C@@]3(C(=O)Nc4ccccc43)[C@@]23C(=O)Nc2ccccc23)cc1 (some centres undefined)	Active	Active	Active	45.3	47.7
O=C(c1ccccc1)[C@@H]1C2CCCN2[C@@]2(C(=O)Nc3ccccc32)[C@@]12C(=O)Nc1ccccc12 (some centres undefined)	Active	Active	Active	22.7	59.6
CC[C@H]1CN2CC[C@]3(C(=O)Nc4ccccc43)[C@@H]2C[C@@H]1/C(=C\OC)C(=O)OC [RHYNCHOPHYLLINE]	–	–	–	37.6	77
COc1cccc(C(=O)[C@@H]2C3CCCN3[C@@]3(C(=O)Nc4ccccc43)[C@@]23C(=O)Nc2ccccc23)c1 (some centres undefined)	Active	Active	Active	20.3	64.8
CC[C@H]1CN2CC[C@@]3(C(=O)Nc4ccccc43)[C@@H]2C[C@@H]1/C(=C\OC)C(=O)OC	–	–	–	30.4	–
O=C(O[C@@H]1Cc2c(O)cc(O)cc2O[C@@H]1c1cc(O)c(O)c(O)c1)c1cc(O)c(O)c(O)c1	–	–	–	24.4	–
